Test results published in patent US20190262457A1, “NOVEL ALKYLATING AGENT” (CHIBA-PREFECTURE, priority 2016, published 2019).

Tests used:
RKO cells = test: Cytotoxicity and IC50 comparison with CBI by WST assay, 48 hours; type: cell-based, human; settings: WST-8
Protocol: (§1) From the cell lines mentioned above, a large intestine cancer cell line SW480 was used as cells expressing PD-1, and a large intestine cancer cell line RKO was used as cells expressing PD-L1. An experiment was conducted to compare toxicity and IC50 between the PIP-drug conjugate compound CCC07-01 and the alkylating agent CBI used as a drug conjugate therein. The cells of each line were inoculated at 3000 cells/well to a 96-well microplate and cultured overnight. On the next day, the cells were treated with the PIP-CBI conjugate (CCC07-01) or CBI having a concentration of 0.1, 1, 10, 30, 100, 300, or 1000 nM (1 μM) for 48 hours. Then, WST-8 reagent was added to each well using Cell counting kit-8, and the mixture was reacted for 2 hours. Then, the cell count was calculated at a wavelength of 450 nm by the colorimetric analysis method using a microplate reader. The method for calculating the cell count involved: 1) obtaining the mean value of a medium alone, 2) subtracting the mean value of the medium from each well, 3) obtaining the mean value of DMSO, 4) dividing the medium mean value-subtracted value by the mean value of DMSO and then multiplying by 100, and 5) obtaining the mean value of each treatment group and a standard deviation, and preparing a graph. IC50 was calculated according to the following expression: IC50=10(LOG(A/B)×(50−C)/(D−C)+LOG(B) wherein A: a higher concentration of two concentrations sandwiching 50%, B: a lower concentration of two concentrations sandwiching 50%, C: the rate of inhibition at B, and D: the rate of inhibition at A.

SW480 cells = test: as above; type: cell-based, human; settings: WST-8
Protocol: as §1

PD-L1 gene = test: Experiment to silence PD-L1 gene (RT-PCR / real-time PCR), CCC07-01; type: cell-based, human; settings: RKO cells, 10 nM, 24 hours
Protocol: RKO cells were cultured in a 6-well plate. On the next day, the cells were treated with 0, 1, 10, or 100 nM CCC07-01 for 24 hours. The cells were collected, and total RNA was extracted therefrom. The extraction employed RNeasy Plus Mini Kit (Qiagen N.V., CA). Next, cDNA was prepared by reverse transcription with the extracted RNA as a template according to Super Script VILO cDNA Synthesis kit (Invitrogen Corp., CA). RT-PCR was performed with the cDNA as a template under the following conditions: the conditions for PD-L1 involved denaturation at 95° C. and then 25 cycles each involving 95° C. for 30 seconds, 60° C. for 30 seconds, and 72° C. for 30 seconds, followed by elongation reaction at 72° C. for 5 minutes. For a control, RT-PCR of GAPDH was performed using the same cDNA as above. The conditions for GAPDH involved denaturation at 95° C. and then 22 cycles each involving 95° C. for 30 seconds, 55° C. for 30 seconds, and 72° C. for 30 seconds, followed by elongation reaction at 72° C. for 5 minutes.
Each RT-PCR product was electrophoresed on 2% agarose and then stained with ethidium bromide. qPCR was further performed. […] A relative expression level was quantified with GAPDH as a control.

CTLA-4 gene = test: Experiment to silence CTLA-4 gene (semi-quantitative RT-PCR), CCC07-01; type: cell-based, human; settings: A2058 cells, 10 nM, 24 hours
Protocol: A2058 or MIA PaCa-2 cells were cultured in a 6-well plate. On the next day, the cells were treated with 0, 1, or 10 nM CCC07-01 for 24 hours. The cells were collected, and total RNA was extracted therefrom. The extraction employed RNeasy Plus Mini Kit (Qiagen N.V., CA). Next, cDNA was prepared by reverse transcription with the extracted RNA as a template according to Super Script VILO cDNA Synthesis kit (Invitrogen Corp., CA). RT-PCR was performed with the cDNA as a template under the following conditions: the conditions involved denaturation at 95° C. for 2 minutes and then 33 cycles each involving 95° C. for 30 seconds, 60° C. for 30 seconds, and 72° C. for 30 seconds, followed by elongation reaction at 72° C. for 5 minutes. For a control, RT-PCR of GAPDH was performed using the same cDNA as above. The conditions for GAPDH involved denaturation at 95° C. for 2 minutes and then 22 cycles each involving 95° C. for 30 seconds, 55° C. for 30 seconds, and 72° C. for 30 seconds, followed by elongation reaction at 72° C. for 5 minutes. Each PCR product was electrophoresed on 2% agarose and then stained with ethidium bromide. The concentration of the band of the PCR product of CTLA-4 was calculated with the GAPDH band as a control using Image J. The concentrations of the PCR products for each concentration of PIP were compared for quantification.

[1] = log-P (octanol/water partition coefficient) by HPLC, indole/curcumin calibration curve; type: physicochemical; settings: calculated from indole/curcumin calibration curve, listed as CCC07-001
Protocol: The polyamides were further analyzed for log-P (octanol/water partition coefficient) by HPLC. The retention times of 2 types of compounds (compound names) having a known log-P value and the polyamides were measured in the presence of a mixed solvent of 0.1% aqueous acetic acid solution and acetonitrile by HPLC using isocratic elution. […] The log-P values of the polyamides were calculated from the curve.

[2] = system: subcutaneously transplanted RKO tumor; test: Tumor volume in RKO-transplanted humanized NSG mice; type: in vivo; settings: humanized NSG mouse
Protocol: (§2) 1×10^7 cells of human PBMC (Precision Bioservices Inc.) were intravenously transplanted to each NSG mouse (NOD.Cg-Prkdc^scidI/2rg^tm1Wj1/SzJ; Charles River Laboratories Japan, Inc.) to prepare a humanized NSG mouse. One week after the PBMC transplantation, 1×10^7 RKO cells (ATCC) were subcutaneously transplanted to each humanized NSG mouse. After the transplantation, CCC07-01 was intravenously administered at 2.3 or 9.2 mg/kg to the mouse when tumorigenesis was able to be confirmed. The tumor size was measured over time, and the tumor volume (mm^3) was calculated according to the expression: Tumor volume=[…]. One week after the CCC07-01 administration, the spleen was harvested and homogenized in 2% FBS/PBS to prepare a cell suspension. The spleen cells were stained with a fluorescently labeled anti-human CD4 antibody, anti-human CD8 antibody and anti-human Foxp3 antibody and analyzed for the numbers of cytotoxic T cells (CD8-positive cells) and regulatory T cells (Treg: CD4-positive and Foxp3-positive cells) using a flow cytometer. Statistical processing was performed by the Mann-Whitney U test, and the significance level was set to P<0.05.

[3] = system: cytotoxic T cells (CD8-positive cells) and regulatory T cells (Treg); test: Ratio of cytotoxic T cells to Treg in the spleen of RKO-transplanted humanized NSG mice (flow cytometer); type: in vivo, mouse; settings: one week after administration
Protocol: as §2

With `CC(=O)Nc1cn(C)c(C(=O)Nc2cc(C(=O)Nc3cn(C)c(C(=O)Nc4cn(C)c(C(=O)NCCC(=O)Nc5cc(C(=O)Nc6cc(C(=O)NCCCC(=O)Nc7cc(C(=O)Nc8cn(C)c(C(=O)NCCC(=O)Nc9cc(C(=O)Nc%10cc(C(=O)Nc%11ccc%12[nH]c(C(=O)N%13CC(CCl)c%14c%13cc(O)c%13ccccc%14%13)cc%12c%11)n(C)c%10)n(C)c9)n8)n(C)c7)n(C)c6)n(C)c5)n4)n3)n(C)c2)n1` (stereo not drawn) [CCC07-01] the IC50 (RKO cells) was 4 nM, the IC50 (SW480 cells) was 11 nM and the “expression of PD-L1” value (PD-L1 gene) was “markedly decreased”. The “expression of CTLA-4” value (CTLA-4 gene) was “markedly decreased”, the logPow [1] was 3.13 and the T/C ratio ([2]; 2.3 mg/kg intravenous) was 56.0%. The T/C ratio ([2]; 9.2 mg/kg intravenous) was 41.5%, the “CD8-positive cell/Treg ratio in the spleen” value ([3]; 2.3 mg/kg intravenous) was 116.5 and the “CD8-positive cell/Treg ratio in the spleen” value ([3]; 9.2 mg/kg intravenous) was 323.2.
